Results published in US7915012B2, “Methods for screening for inhibitors of TRPV2 activation” (Korea University Industry and Academic Collaboration …, priority 2008, dated 2011).
Values belong to the compound of their own block, whether it stands above or below them.

Experiments:
rTRPV2 = molecular target: T1, rTRPV2 (Rattus norvegicus, UniProt Q9WUD2, A713V/L151P/T158I); assay: Whole-cell voltage-clamp recording in TRPV2 transfected HEK293T cell line; format: cell-based
T1 construct: expressed in transfected cells; host or cells: HEK293T (ATCC CRL-11268)
T1 sequence (Q9WUD2 1-761 L151P/T158I/A713V): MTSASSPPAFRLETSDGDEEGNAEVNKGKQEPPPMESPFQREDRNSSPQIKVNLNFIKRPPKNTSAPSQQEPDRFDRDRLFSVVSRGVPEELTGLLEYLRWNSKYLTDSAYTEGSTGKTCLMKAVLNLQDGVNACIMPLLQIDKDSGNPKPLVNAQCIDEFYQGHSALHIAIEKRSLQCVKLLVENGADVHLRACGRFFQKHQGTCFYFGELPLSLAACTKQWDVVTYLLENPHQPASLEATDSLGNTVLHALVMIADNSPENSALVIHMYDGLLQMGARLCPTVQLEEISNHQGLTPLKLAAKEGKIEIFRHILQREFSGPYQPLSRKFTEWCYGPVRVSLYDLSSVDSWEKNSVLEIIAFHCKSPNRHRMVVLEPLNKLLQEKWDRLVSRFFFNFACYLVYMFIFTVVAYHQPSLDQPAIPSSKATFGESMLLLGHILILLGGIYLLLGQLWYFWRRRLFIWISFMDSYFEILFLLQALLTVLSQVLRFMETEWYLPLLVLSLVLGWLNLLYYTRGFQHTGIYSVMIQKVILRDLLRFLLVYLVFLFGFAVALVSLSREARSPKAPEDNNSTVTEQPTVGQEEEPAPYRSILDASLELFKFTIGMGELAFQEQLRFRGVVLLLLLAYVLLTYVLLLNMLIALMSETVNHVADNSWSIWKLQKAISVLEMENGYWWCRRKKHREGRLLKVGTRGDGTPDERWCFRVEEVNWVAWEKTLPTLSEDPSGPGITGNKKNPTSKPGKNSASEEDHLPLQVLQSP
Procedure: HEK293T cell line (ATCC CRL-1 1268) was transiently transfected with plasmid DNA containing polynucleotide encoding […] (SEQ. ID. NO: 1), rTRPV2 (SEQ. ID. NO: 2), mTRPV3 (SEQ. ID. NO: 3), rTRPV4 (SEQ. ID. NO: 4), mTRPM8 (SEQ. ID. NO: 5) or mTRPA1 (SEQ. ID. NO: 6).
Particularly, the HEK293T cell line was transiently transfected with individual TRP channel plasmid (pcDNA3.1 containing polynucleotide encoding rTRPV1, rTRPV2, mTRPV3, rTRPV4, mTRPM8 or mTRPA1), and 600 ng/well of pCDNA3 (Invitrogen Corp., USA; containing green fluorescent protein (GFP) cDNA) using Fugene6 (Roche Diagnostics, USA) according to manufacturer's instruction. The transformed cells were cultured in DMEM/F12 containing 10% FBS and 1% penicillin/streptomycin in a CO2 incubator for 24 hours. The cells were replated onto poly-L-lysine-coated glass coverslips, followed by further culture for 10-24 hours.
The TRPV2 transfected cell line prepared in Example 1 was treated with 100 μM probenecid (Sigma-Aldrich, USA) and 300 μM 2-APB (2-aminoethoxydiphenyl borate; Cayman Chemical, USA), respectively. Stock solutions were made using water, DMSO or ethanol, and were diluted with test solutions before use.
Whole-cell voltage-clamp recording, one of the patch-clamp techniques, was performed with the transfected cell line of Example <1-1> according to the method of Bandel M, et al. (Neuron 41:849-857, 2004).
Particularly, the extracellular solution (140 mM NaCl, 5 mM KCl, 2 mM CaCl2, 1 mM MgCl2, 10 mM HEPES; titrated to pH 7.4 with NaOH) and the pipette solution (140 mM CsCl, 5 mM EGTA, 10 mM HEPES, 2.0 mM MgATP, 0.2 mM NaGTP; titrated to pH 7.2 with CsOH) were used. The potential was held at −60 mV for 250 ms, voltage-ramp pulsed from −80 mV to +80 mV for […] and returned to −60 mV for 250 ms, which was repeated without intersweep. This experiment was repeated 5 times.
The TRPV2 transfected cell line prepared by the method of Example 1 was treated with 100 μM probenecid, 100 μM probenecid+20 μM ruthenium red (Sigma-Aldrich, USA) and 300 μM 2-APB, respectively. […]

trigeminal neurons [1] = assay: Calcium imaging of cultured trigeminal neurons; format: cell-based, ICR mice
Procedure: Trigeminal ganglia were dissected out of decapitated adult ICR mice in cold PBS and treated with 1.5 mg/ml of collagenase/dispase (Roche Diagnostics, USA) at 37° for 45 min, and then treated with 0.25% trypsin (Invitrogen, USA) for 15 min. The trigeminal neurons prepared thereby were then plated onto poly-L-lysinecoated coverslips in DMEM/F12 containing 10% FBS, 1% penicillin/streptomycin and 5 ng/ml of 2.5S NGF (Invitrogen, USA), followed by culture in a CO2 incubator for 48-72 hours.
Calcium imaging was performed with a confocal microscope (LSM5 Pascal, Carl Zeiss, Germany), and time-lapse images (excitation 488 nm/emission 514 nm) were collected every 3 seconds using Carl Zeiss ratio tool software (Carl Zeiss, Germany).
The trigeminal neurons prepared by the same manner as described in Example 2 were delayed-treated with 100 μM probenecid or 4 kinds of TRP activators: TRPM8 activator menthol 400 μM, TRPA1 activator cinnamaldehyde (MP Biomedicals, USA) 300 μM, TRPV1 activator capsaicin (Sigma-Aldrich, USA) 2 μM and TRPV1-3 activator 2-APB 300 μM.
The trigeminal neurons prepared by the same manner as described in Example 2 were treated with 300 μM 2-APB+100 μM probenecid, 300 μM 2-APB+2 μM capsaicin, 300 μM 2-APB+300 μM cinnamaldehyde+2 μM capsaicin, 300 μM 2-APB +2 μM capsaicin +100 μM probenecid, 300 μM 2-APB +400 μM menthol and 300 μM 2-APB, respectively.

trigeminal neurons [2] = assay: Whole-cell voltage-clamp recording in trigeminal neurons; format: cell-based, ICR mice; conditions: 20 μM ruthenium red + 100 μM probenecid

SMILES: NCCOB(c1ccccc1)c1ccccc1 [2-APB, 2-aminoethoxydiphenyl borate]
whole cell current (TRPV2 activation) (rTRPV2; 300 μM 2-APB): equal response
neurons sensitive to 2-APB, share of the total neurons (trigeminal neurons [1]; 300 μM 2-APB): 46.8%
neurons with probenecid-induced calcium influx that responded to 2-APB (trigeminal neurons [1]; 300 μM 2-APB, 100 μM probenecid): 59 out of 60

SMILES: COc1cc(CNC(=O)CCCC/C=C/C(C)C)ccc1O [capsaicin]
share of probenecid-sensitive neurons that responded to capsaicin (trigeminal neurons [1]; 2 μM capsaicin, 100 μM probenecid): 7.7%
share of the 2-APB-sensitive group that responded to capsaicin (trigeminal neurons [1]; 2 μM capsaicin, 300 μM 2-APB): 40.2%

inhibition of probenecid induced current response (rTRPV2; 20 μM ruthenium red + 100 μM probenecid): inhibited
SMILES: N.N.N.N.N.N.N.N.N.N.N.N.N.N.[Cl-].[Cl-].[Cl-].[Cl-].[Cl-].[Cl-].[O-2].[O-2].[Ru+3].[Ru+3].[Ru+4] [ruthenium red]
inhibition of probenecid induced currents in trigeminal neurons (trigeminal neurons [2]): inhibited
